From patent US10647684B2, “2-aminopyrimidine derivatives for the treatment of viral infections” (Janssen Sciences Ireland Unlimited Company, priority 2013, dated 2020)

How the values were obtained:
Format in all cases: cell-based
human TLR7 = molecular target: T1, human TLR7 (Homo sapiens, UniProt Q9NYK1); test: TLR7 cellular reporter assay (HEK293, NFκB-luc); details: lowest effective concentration; HEK293 transiently transfected with TLR7 and NFκB-luc; 6 hours incubation
T1 construct: expressed in transfected cells; host or cells: HEK293
T1 sequence (Q9NYK1 27-1049): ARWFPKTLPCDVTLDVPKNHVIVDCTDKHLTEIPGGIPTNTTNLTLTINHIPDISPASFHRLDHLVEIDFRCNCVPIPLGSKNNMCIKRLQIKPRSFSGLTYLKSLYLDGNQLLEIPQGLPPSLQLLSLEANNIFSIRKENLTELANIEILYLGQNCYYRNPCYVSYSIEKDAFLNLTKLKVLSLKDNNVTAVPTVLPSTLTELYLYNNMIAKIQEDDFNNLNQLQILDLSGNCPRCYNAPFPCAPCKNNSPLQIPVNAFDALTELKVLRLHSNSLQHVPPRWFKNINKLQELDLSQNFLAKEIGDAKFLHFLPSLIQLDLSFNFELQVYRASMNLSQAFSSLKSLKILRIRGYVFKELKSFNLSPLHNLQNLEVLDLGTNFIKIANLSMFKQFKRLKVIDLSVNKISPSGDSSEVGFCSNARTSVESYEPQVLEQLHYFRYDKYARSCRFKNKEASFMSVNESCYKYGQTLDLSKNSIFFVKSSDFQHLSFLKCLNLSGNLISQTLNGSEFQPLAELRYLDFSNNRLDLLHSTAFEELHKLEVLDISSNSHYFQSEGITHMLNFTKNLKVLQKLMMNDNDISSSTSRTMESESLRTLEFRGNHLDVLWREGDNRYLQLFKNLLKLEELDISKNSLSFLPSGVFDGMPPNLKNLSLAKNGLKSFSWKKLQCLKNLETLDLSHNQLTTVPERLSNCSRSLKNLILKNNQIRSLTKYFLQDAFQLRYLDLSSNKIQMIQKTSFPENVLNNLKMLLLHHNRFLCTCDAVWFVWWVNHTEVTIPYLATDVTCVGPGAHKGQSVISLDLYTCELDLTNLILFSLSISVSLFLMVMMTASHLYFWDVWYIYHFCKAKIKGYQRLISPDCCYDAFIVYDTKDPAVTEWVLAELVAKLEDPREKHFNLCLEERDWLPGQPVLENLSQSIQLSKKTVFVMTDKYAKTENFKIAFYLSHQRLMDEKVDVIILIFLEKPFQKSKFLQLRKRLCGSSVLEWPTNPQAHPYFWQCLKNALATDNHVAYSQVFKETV
Protocol: (§1) The ability of compounds to activate human TLR7 and/or TLR8 was assessed in a cellular reporter assay using HEK293 cells transiently transfected with a TLR7 or TLR8 expression vector and NFκB-luc reporter construct.
(§2) Briefly, HEK293 cells were grown in culture medium (DMEM supplemented with 10% FCS and 2 mM Glutamine). For transfection of cells in 15 cm dishes, cells were detached with Trypsin-EDTA, transfected with a mix of CMV-TLR7 or TLR8 plasmid (1700 ng), NFκB-luc plasmid (850 ng) and a transfection reagent and incubated for 48 h at 37° C. in a humidified 5% CO2 atmosphere. Transfected cells were then washed in PBS, detached with Trypsin-EDTA and resuspended in medium to a density of 1.25×10^5 cells/mL. Forty microliters of cells were then dispensed into each well in 384-well plates, where 200 nL of compound in 100% DMSO was already present. Following 6 hours incubation at 37° C., 5% CO2, the luciferase activity was determined by adding 15 μL of Steady Lite Plus substrate (Perkin Elmer) to each well and readout performed on a ViewLux ultraHTS microplate imager (Perkin Elmer). Dose response curves were generated from measurements performed in quadruplicates. Lowest effective concentrations (LEC) values, defined as the concentration that induces an effect which is at least two fold above the standard deviation of the assay, were determined for each compound.

[1] = test system: interferon-stimulated responsive elements (ISRE); test: Activation of ISRE promoter elements by conditioned media from PBMC (HEK-ISREluc); details: compound concentration applied to PBMCs overnight; supernatant on HEK-ISREluc cells 24 hours
Protocol: The potential of compounds to induce IFN-I was also evaluated by measuring the activation of interferon-stimulated responsive elements (ISRE) by conditioned media from PBMC. The ISRE element of sequence GAAACTGAAACT (SEQ ID NO: 1) is highly responsive to the STAT1-STAT2-IRF9 transcription factor, activated upon binding of IFN-I to their receptor IFNAR (Clontech, PT3372-5W). The plasmid pISRE-Luc from Clontech (ref. 631913) contains 5 copies of this ISRE element, followed by the firefly luciferase ORF. A HEK293 cell line stably transfected with pISRE-Luc (HEK-ISREluc) was established to profile the conditioned PBMC cell culture media.
Briefly, PBMCs were prepared from buffy coats of at least two donors using a standard Ficoll centrifugation protocol. Isolated PBMCs were resuspended in RPMI medium supplemented with 10% human AB serum and 2×10^5 cells/well were dispensed into 384-well plates containing compounds (70 μL total volume). After overnight incubation, 10 μL of supernatant was transferred to 384-well plates containing 5×10^3 HEK-ISREluc cells/well in 30 μL (plated the day before). Following 24 hours of incubation, activation of the ISRE elements was measured by assaying luciferase activity using 40 μL/well Steady Lite Plus substrate (Perkin Elmer) and measured with ViewLux ultraHTS microplate imager (Perkin Elmer). […]

human TLR8 = molecular target: T2, human TLR8 (Homo sapiens, UniProt Q9NR97); test: TLR8 cellular reporter assay (HEK293, NFκB-luc); details: lowest effective concentration; HEK293 transiently transfected with TLR8 and NFκB-luc; 6 hours incubation
T2 construct: expressed in transfected cells; host or cells: HEK293
T2 sequence (Q9NR97 27-1041): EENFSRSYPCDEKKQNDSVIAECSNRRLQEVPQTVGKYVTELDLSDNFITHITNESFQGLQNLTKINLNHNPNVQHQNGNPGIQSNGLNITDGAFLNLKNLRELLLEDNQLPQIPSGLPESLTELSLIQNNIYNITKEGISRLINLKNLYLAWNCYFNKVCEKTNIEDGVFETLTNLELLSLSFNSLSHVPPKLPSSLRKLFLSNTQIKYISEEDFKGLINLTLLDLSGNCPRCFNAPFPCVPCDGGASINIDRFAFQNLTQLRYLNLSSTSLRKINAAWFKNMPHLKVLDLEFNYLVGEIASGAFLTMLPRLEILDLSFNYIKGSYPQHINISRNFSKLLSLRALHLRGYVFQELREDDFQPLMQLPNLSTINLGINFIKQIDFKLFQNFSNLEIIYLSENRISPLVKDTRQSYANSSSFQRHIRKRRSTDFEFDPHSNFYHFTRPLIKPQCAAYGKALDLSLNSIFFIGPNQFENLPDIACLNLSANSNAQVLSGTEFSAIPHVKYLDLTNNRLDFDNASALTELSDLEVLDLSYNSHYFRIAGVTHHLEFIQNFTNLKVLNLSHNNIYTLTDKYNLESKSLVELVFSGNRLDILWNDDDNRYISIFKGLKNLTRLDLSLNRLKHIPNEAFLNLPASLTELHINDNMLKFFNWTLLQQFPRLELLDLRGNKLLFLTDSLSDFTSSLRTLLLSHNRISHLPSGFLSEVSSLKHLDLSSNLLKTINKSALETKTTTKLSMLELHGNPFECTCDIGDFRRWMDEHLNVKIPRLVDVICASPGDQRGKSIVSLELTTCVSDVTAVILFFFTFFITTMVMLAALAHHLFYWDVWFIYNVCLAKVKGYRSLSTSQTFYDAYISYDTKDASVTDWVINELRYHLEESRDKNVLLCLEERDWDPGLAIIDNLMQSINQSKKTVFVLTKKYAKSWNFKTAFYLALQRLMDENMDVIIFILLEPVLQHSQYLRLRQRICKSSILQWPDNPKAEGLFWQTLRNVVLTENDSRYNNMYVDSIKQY
Protocol: as §1, §2

| Human TLR 7 (LEC) (human TLR7) [µM] | Human TLR 8 (LEC) (human TLR8) [µM] | SMILES | HEK-ISRE luc (LEC) [1] [µM] |
| --- | --- | --- | --- |
| 2.0 | 1.7 | CCCC[C@@H](CCS(C)(=O)=O)Nc1nc(N)ncc1OC [Compound 1] | 0.65 |
| 1.4 | 9.2 | CCCC[C@@H](CC[S+](C)[O-])Nc1nc(N)ncc1OC (some centres unmarked) [Compound 2] | 4.8 |
| 3.9 | 10 | CCCC[C@@H](CCSC)Nc1nc(N)ncc1OC [E] |  |
